# Entries after “also recorded” stand apart in the source; their conditions may differ.
# Legend:
# Assay type in all cases: cell-based, human
# RPMI-8226 (leukemia) = assay: NCI 60-cell one-dose antiproliferative screen; conditions: one dose 10 μM
# [1] = test system: NCI-H226 (NSC lung cancer); assay: NCI 60-cell one-dose antiproliferative screen; conditions: one dose 10 μM
# [2] = test system: NCI-H522 (NSC lung cancer); assay: NCI 60-cell one-dose antiproliferative screen; conditions: one dose 10 μM
# HT29 (colon cancer) = assay: NCI 60-cell one-dose antiproliferative screen; conditions: one dose 10 μM
# SW-620 (colon cancer) = assay: NCI 60-cell one-dose antiproliferative screen; conditions: one dose 10 μM
# SNB-75 (CNS cancer) = assay: NCI 60-cell one-dose antiproliferative screen; conditions: one dose 10 μM
# MALME-3M (melanoma) = assay: NCI 60-cell one-dose antiproliferative screen; conditions: one dose 10 μM
# M14 (melanoma) = assay: NCI 60-cell one-dose antiproliferative screen; conditions: one dose 10 μM
# SK-MEL-2 (melanoma) = assay: NCI 60-cell one-dose antiproliferative screen; conditions: one dose 10 μM
# OVCAR-8 (ovarian cancer) = assay: NCI 60-cell one-dose antiproliferative screen; conditions: one dose 10 μM
# MCF7 (breast cancer) = assay: NCI 60-cell one-dose antiproliferative screen; conditions: one dose 10 μM
# p-PI3K = assay: Phosphorylated PI3K ELISA in MCF7 cells; conditions: 4g at its IC50 0.56 μM, compared to untreated MCF7 cells
# MCF7 cells = assay: Cell cycle analysis by flow cytometry
# [3] = MCF7, 4g at IC50 (0.56 μM), 24 h
# [4] = MCF7, 4g at IC50 (0.56 μM), relative to DMSO control
structure (smiles),measurement,setting,value
"COc1ccc(-c2nnc3ccc(NN=Cc4ccc(O)cc4)nn23)cc1 [Compound 4g, 4-((2-(3-(4-Methoxyphenyl)-[1,2,4]triazolo[4,3-b]pyridazin-6-yl)hydrazono)methyl)phenol]",GI%,RPMI-8226 (leukemia),86.88%
same,GI%,[1],22.48%
same,GI%,[2],53.35%
same,GI%,HT29 (colon cancer),— (— GI% is below 15%)
same,GI%,SW-620 (colon cancer),32.85%
same,GI%,SNB-75 (CNS cancer),46.38%
same,GI%,MALME-3M (melanoma),35.83%
same,GI%,M14 (melanoma),43.64%
same,GI%,SK-MEL-2 (melanoma),26.79%
same,GI%,OVCAR-8 (ovarian cancer),54.60%
same,GI%,MCF7 (breast cancer),86.77%
same,inhibition of PI3K phosphorylation,p-PI3K,55.5%
same,%G0-G1,MCF7 cells; [3],52.94%
same,%G2/M,MCF7 cells; [3],4.13%
same,drop in the cell population at G0/G1 phase,MCF7 cells; [4],10.48%
same,drop in the cell population at G2/M phase,MCF7 cells; [4],46.84%
same,increase in the proportion of cells in the S phase,"MCF7 cells; MCF7, 4g at IC50 (0.56 μM), versus control (DMSO)",1.29 fold
same,cell cycle arrest phase,MCF7 cells; MCF7 cells,arrest in the S stage of the cell cycle; also recorded: arrest in the proliferation of MCF7 cells in the S phase; also recorded: ceased the proliferation of MCF-7 cancer cells in the S phase

# From article PMC11420776 (RSC Advances, 2024)
